# Assay: physchem
# Settings: octanol/buffer
row,logP,SMILES
1,5.33,CNC(=O)Cc1ccc(Cl)c(CN(C(=O)[C@H]2CNCC(=O)N2c2ccc(CCCOc3cccc(Cl)c3)cc2)C2CC2)c1
2,4.39,CN(CCCc1ccccc1)C(=O)[C@H]1CNCC(=O)N1c1ccc(OCCCOCc2ccccc2)cc1
3,4.91,CNCCc1ccc(Cl)c(CN(C(=O)[C@H]2CNCC(=O)N2c2ccc(OCCOc3c(Cl)cc(C)cc3Cl)nc2)C2CC2)c1
4,4.39,COCCCc1cc(CN(C(=O)[C@H]2CNCC(=O)N2c2ccc(OCCOc3c(Cl)cc(C)cc3Cl)nc2)C2CC2)c(Cl)cn1
5,5.1,COc1ccccc1COCCCOc1ccc(N2C(=O)CNC[C@@H]2C(=O)N(Cc2cccc(Cl)c2)C2CC2)cc1
6,4.35,COc1ccccc1COCCCOc1ccc(N2C(=O)CNC[C@@H]2C(=O)N(C)CCCc2ccccc2)cc1
7,5.25,CN(Cc1ccccc1Cl)C(=O)[C@H]1CNCC(=O)N1c1ccc(CCCOc2cccc(Cl)c2)cc1
8,4.12,COc1c(CN(C(=O)[C@H]2CNCC(=O)N2c2ccc(CCCOc3c(F)ccc(F)c3F)cc2)C2CC2)ccnc1C
9,3.12,COc1c(CN(C(=O)[C@H]2CNCC(=O)N2c2ccc(COC(=O)c3ccccc3)cc2)C2CC2)ccnc1C
10,2.86,COc1ccccc1COCCCOc1ncc(N2C(=O)CNC[C@@H]2C(=O)N(Cc2cc(CNC(=O)C3CC3)ccc2Cl)C2CC2)cn1
11,5.99,CCNCc1ccc(Cl)c(CN(C(=O)[C@H]2CNCC(=O)N2c2ccc(OCCOc3c(Cl)cc(C)cc3Cl)cc2)C2CC2)c1
12,5.94,O=C([C@H]1CNCC(=O)N1c1ccc(CCCOc2cccc(Cl)c2)cc1)N(Cc1cccc(Cl)c1)C1CC1
13,6.2,O=C([C@H]1CNCC(=O)N1c1ccc(CCCOc2c(F)ccc(F)c2F)cc1)N(Cc1cc(CNC2CC2)ccc1Cl)C1CC1
14,4.75,COC(=O)NCc1ccc(Cl)c(CN(C(=O)[C@H]2CNCC(=O)N2c2ccc(OCCOc3c(Cl)cc(C)cc3Cl)nc2)C2CC2)c1
15,2.47,CNC(=O)Cc1ccc(Cl)c(CN(C(=O)[C@H]2CNCC(=O)N2c2cnc(OCCCOCc3ccccc3OC)nc2)C2CC2)c1
16,6.28,CC(C)(C)OCC(=O)NCCc1ccc(Cl)c(CN(C(=O)[C@H]2CNCC(=O)N2c2ccc(CCCOc3c(F)ccc(F)c3F)cc2)C2CC2)c1
17,5.01,Cc1cc(Cl)c(OCCOc2ccc(N3C(=O)CNC[C@@H]3C(=O)N(Cc3ccc(Cl)cc3)C3CC3)cn2)c(Cl)c1
18,5.43,COCCCc1cc(CN(C(=O)[C@H]2CNCC(=O)N2c2ccc(OCCOc3c(Cl)cc(C)cc3Cl)cc2)C2CC2)c(Cl)c[n+]1[O-]
19,5.45,CC(=O)NCCc1ccc(Cl)c(CN(C(=O)[C@H]2CNCC(=O)N2c2ccc(CCCOc3cccc(Cl)c3)cc2)C2CC2)c1
20,5.87,Cc1cc(Cl)c(OCCOc2ccc(N3C(=O)CNC[C@@H]3C(=O)N(Cc3cccc(Cl)c3)C3CC3)cc2)c(Cl)c1
21,4.81,CNC(=O)OCc1ccc(Cl)c(CN(C(=O)[C@H]2CNCC(=O)N2c2ccc(OCCCOCc3ccccc3OC)cc2)C2CC2)c1
22,5.06,COc1ccccc1COCCCOc1ccc(N2C(=O)CNC[C@@H]2C(=O)N(Cc2ccccc2Cl)C2CC2)cc1
23,4.82,CNCc1ccc(Cl)c(CN(C(=O)[C@H]2CNCC(=O)N2c2ccc(OCCOc3c(Cl)cc(C)cc3Cl)nc2)C2CC2)c1
24,3.95,CN(CCc1ccccc1)C(=O)[C@H]1CNCC(=O)N1c1ccc(OCCCOCc2ccccc2)cc1
25,6.32,O=C([C@H]1CNCC(=O)N1c1ccc(CCCOc2c(F)ccc(F)c2F)cc1)N(Cc1cccc(Cl)c1Cl)C1CC1

row,logP,SMILES
1,4.89,CCNCc1ccc(Cl)c(CN(C(=O)[C@H]2CNCC(=O)N2c2ccc(COC(=O)c3ccccc3)cc2)C2CC2)c1
2,5.91,Cc1cc(Cl)c(OCCOc2ccc(N3C(=O)CNC[C@@H]3C(=O)N(Cc3cc(CC(=O)NC4CC4)ccc3Cl)C3CC3)cc2)c(Cl)c1
3,5.16,CCNCc1ccc(Cl)c(CN(C(=O)[C@H]2CNCC(=O)N2c2ccc(OCCOc3c(Cl)cc(C)cc3Cl)nc2)C2CC2)c1
4,5.49,CCNC(=O)Cc1ccc(Cl)c(CN(C(=O)[C@H]2CNCC(=O)N2c2ccc(CCCOc3c(F)ccc(F)c3F)cc2)C2CC2)c1
5,4.53,CNC(=O)Cc1ccc(Cl)c(CN(C(=O)[C@H]2CNCC(=O)N2c2ccc(OCCCOCc3ccccc3)cc2)C2CC2)c1
6,6.49,COCCCc1ccc(Cl)c(CN(C(=O)[C@H]2CNCC(=O)N2c2ccc(OCCOc3c(Cl)cc(C)cc3Cl)cc2)C2CC2)c1
7,1.61,COc1ccccc1COCCCOc1ncc(N2C(=O)CNC[C@@H]2C(=O)NCc2ccccc2)cn1
8,4.81,COC(=O)NCc1ccc(Cl)c(CN(C(=O)[C@H]2CNCC(=O)N2c2ccc(OCCCOCc3ccccc3OC)cc2)C2CC2)c1
9,5.04,O=C([C@H]1CNCC(=O)N1c1ccc(OCCCOCc2ccccc2)cc1)N(Cc1cc(CNCCF)ccc1Cl)C1CC1
10,5.26,CCNCc1ccc(Cl)c(CN(C(=O)[C@H]2CNCC(=O)N2c2ccc(OCCCOCc3ccccc3)cc2)C2CC2)c1
11,5.58,CNC(=O)OCc1ccc(Cl)c(CN(C(=O)[C@H]2CNCC(=O)N2c2ccc(OCCOc3c(Cl)cc(C)cc3Cl)cc2)C2CC2)c1
12,2.4,COc1ccccc1COCCCOc1ncc(N2C(=O)CNC[C@@H]2C(=O)N(C)Cc2ccccc2Cl)cn1
13,4.57,COC(=O)NCCc1ccc(Cl)c(CN(C(=O)[C@H]2CNCC(=O)N2c2ccc(COC(=O)c3ccccc3)cc2)C2CC2)c1
14,6.49,O=C([C@H]1CNCC(=O)N1c1ccc(CCCOc2cccc(Cl)c2)cc1)N(Cc1cccc(Cl)c1Cl)C1CC1
15,6.15,Cc1cc(Cl)c(OCCOc2ccc(N3C(=O)CNC[C@@H]3C(=O)N(Cc3cc(CCNCC(F)F)ccc3Cl)C3CC3)cc2)c(Cl)c1
16,5.58,O=C([C@H]1CNCC(=O)N1c1ccc(OCCCOCc2ccccc2)cc1)N(Cc1cc(CNC2CC2)ccc1Cl)C1CC1
17,4.59,Cc1cc(Cl)c(OCCOc2ccc(N3C(=O)CNC[C@@H]3C(=O)N(C)Cc3ccccc3)cc2)c(Cl)c1
18,4.55,CC(=O)NCCc1ccc(Cl)c(CN(C(=O)[C@H]2CNCC(=O)N2c2ccc(OCCOc3c(Cl)cc(C)cc3Cl)nc2)C2CC2)c1
19,5.74,CNCCc1ccc(Cl)c(CN(C(=O)[C@H]2CNCC(=O)N2c2ccc(OCCOc3c(Cl)cc(C)cc3Cl)cc2)C2CC2)c1
20,5.25,CCNCCc1ccc(Cl)c(CN(C(=O)[C@H]2CNCC(=O)N2c2ccc(OCCOc3c(Cl)cc(C)cc3Cl)nc2)C2CC2)c1
21,5.77,Cc1cc(Cl)c(OCCOc2ccc(N3C(=O)CNC[C@@H]3C(=O)N(Cc3cc(CNCCF)ccc3Cl)C3CC3)cc2)c(Cl)c1
22,5.56,COC(=O)NCCc1ccc(Cl)c(CN(C(=O)[C@H]2CNCC(=O)N2c2ccc(CCCOc3c(F)ccc(F)c3F)cc2)C2CC2)c1
23,5,Cc1cc(Cl)c(OCCOc2ccc(N3C(=O)CNC[C@@H]3C(=O)N(Cc3ccccc3Cl)C3CC3)cn2)c(Cl)c1
24,4.52,COc1ccccc1COCCCOc1ccc(N2C(=O)CNC[C@@H]2C(=O)N(Cc2cc(CNC(C)=O)ccc2Cl)C2CC2)cc1
25,5.59,Cc1cc(Cl)c(OCCOc2ccc(N3C(=O)CNC[C@@H]3C(=O)N(Cc3cccc(Cl)c3Cl)C3CC3)cn2)c(Cl)c1

row,logP,SMILES
1,4.85,CNC(=O)OCc1ccc(Cl)c(CN(C(=O)[C@H]2CNCC(=O)N2c2ccc(OCCCOCc3ccccc3)cc2)C2CC2)c1
2,4.15,CNC(=O)Cc1ccc(Cl)c(CN(C(=O)[C@H]2CNCC(=O)N2c2ccc(COC(=O)c3ccccc3)cc2)C2CC2)c1
3,2.43,COCCCc1cc(CN(C(=O)[C@H]2CNCC(=O)N2c2cnc(OCCCOCc3ccccc3OC)nc2)C2CC2)c(Cl)cn1
4,4.97,CNCCc1ccc(Cl)c(CN(C(=O)[C@H]2CNCC(=O)N2c2ccc(OCCCOCc3ccccc3OC)cc2)C2CC2)c1
5,4.77,CCNC(=O)Cc1ccc(Cl)c(CN(C(=O)[C@H]2CNCC(=O)N2c2ccc(OCCOc3c(Cl)cc(C)cc3Cl)nc2)C2CC2)c1
6,4.47,CC(=O)NCc1ccc(Cl)c(CN(C(=O)[C@H]2CNCC(=O)N2c2ccc(OCCOc3c(Cl)cc(C)cc3Cl)nc2)C2CC2)c1
7,6.08,CCNCCc1ccc(Cl)c(CN(C(=O)[C@H]2CNCC(=O)N2c2ccc(OCCOc3c(Cl)cc(C)cc3Cl)cc2)C2CC2)c1
8,5.14,COc1ccccc1COCCCOc1ccc(N2C(=O)CNC[C@@H]2C(=O)N(Cc2cc(CC(=O)NC3CC3)ccc2Cl)C2CC2)cc1
9,5.39,COc1cccc(CN(C(=O)[C@H]2CNCC(=O)N2c2ccc(CCCOc3c(F)ccc(F)c3F)cc2)C2CC2)c1C
10,5.06,COc1ccccc1COCCCOc1ccc(N2C(=O)CNC[C@@H]2C(=O)N(Cc2cccc(C)c2C)C2CC2)cc1
11,5.29,O=C(OCc1ccc(N2C(=O)CNC[C@@H]2C(=O)N(Cc2cc(CCNC3CC3)ccc2Cl)C2CC2)cc1)c1ccccc1
12,5.26,CNC(=O)Cc1ccc(Cl)c(CN(C(=O)[C@H]2CNCC(=O)N2c2ccc(OCCOc3c(Cl)cc(C)cc3Cl)cc2)C2CC2)c1
13,5.58,COC(=O)NCc1ccc(Cl)c(CN(C(=O)[C@H]2CNCC(=O)N2c2ccc(OCCOc3c(Cl)cc(C)cc3Cl)cc2)C2CC2)c1
14,4.49,CN(Cc1ccccc1)C(=O)[C@H]1CNCC(=O)N1c1ccc(CCCOc2c(F)ccc(F)c2F)cc1
15,4.66,CC(=O)NCCc1ccc(Cl)c(CN(C(=O)[C@H]2CNCC(=O)N2c2ccc(OCCCOCc3ccccc3)cc2)C2CC2)c1
16,5.96,O=C([C@H]1CNCC(=O)N1c1ccc(CCCOc2c(F)ccc(F)c2F)cc1)N(Cc1cc(CNCC(F)F)ccc1Cl)C1CC1
17,2.71,COc1ccccc1COCCCOc1ncc(N2C(=O)CNC[C@@H]2C(=O)N(Cc2cccc(OC)c2C)C2CC2)cn1
18,5.97,CCNCCc1ccc(Cl)c(CN(C(=O)[C@H]2CNCC(=O)N2c2ccc(CCCOc3c(F)ccc(F)c3F)cc2)C2CC2)c1
19,4.46,O=C(NCc1ccccc1)[C@H]1CNCC(=O)N1c1ccc(CCCOc2cccc(Cl)c2)cc1
20,5.12,Cc1cc(Cl)c(OCCOc2ccc(N3C(=O)CNC[C@@H]3C(=O)N(C)CCCc3ccccc3)cc2)c(Cl)c1
21,5.24,CNC(=O)CCc1ccc(Cl)c(CN(C(=O)[C@H]2CNCC(=O)N2c2ccc(CCCOc3c(F)ccc(F)c3F)cc2)C2CC2)c1
22,5.28,CC(C)(C)OCC(=O)NCCc1ccc(Cl)c(CN(C(=O)[C@H]2CNCC(=O)N2c2ccc(COC(=O)c3ccccc3)cc2)C2CC2)c1
23,4.19,CC(=O)NCc1ccc(Cl)c(CN(C(=O)[C@H]2CNCC(=O)N2c2ccc(COC(=O)c3ccccc3)cc2)C2CC2)c1
24,5.05,O=C(NCc1ccccc1Cl)[C@H]1CNCC(=O)N1c1ccc(CCCOc2cccc(Cl)c2)cc1
25,1.8,COc1ccccc1COCCCOc1ncc(N2C(=O)CNC[C@@H]2C(=O)N(C)Cc2ccccc2)cn1

# From ChEMBL document CHEMBL1944551, “An integrated computational workflow for efficient and quantitative modeling of renin inhibitors” (Bioorg Med Chem, 2012)
